Key:
delta opioid receptor = delta opioid receptor (Homo sapiens, UniProt P41143); assay: opioid receptor binding assay (Ki), delta
mu opioid receptor = mu opioid receptor (Homo sapiens, UniProt P35372); assay: opioid receptor binding assay (Ki), mu
kappa opioid receptor = kappa opioid receptor (Homo sapiens, UniProt P41145); assay: opioid receptor binding assay (Ki), kappa
[1] = target: T1, cloned human mu opioid receptor (Homo sapiens, UniProt P35372); assay: GTP-γ-S binding assay, antagonist potency (Kb), mu; format: biochemical; details: functional antagonist potency vs DAMGO 1 micromolar; Cheng-Prusoff
T1 construct: expressed in transfected cells
Procedure: (§1) The functional antagonist potency (Kb) of the sample compounds was determined using the GTPγS binding assay. GTPgS-based functional assays provide an in vitro measure of the activity of opioid agonists and antagonists. Opioid reference compounds or test compound are incubated with membrane homogenate from cells expressing the cloned human mu, kappa or delta opioid receptor and radiolabeled [35S]GTPgS. If the compound activates the opioid receptor, an increase in the binding of radiolabeled GTPgS is observed. […] These tests provide an in vitro measurement of the activity of the compound at human opioid receptors.
(§2) An SPA-based GTP-γ-S assay format was developed based on previous opioid (Emmerson et al., J. Pharm Exp Ther 278,1121,1996; Horng et al., Society for Neuroscience Abstracts, 434.6, 2000) and muscarinic (DeLapp et al., JPET 289, 946, 1999) assay formats. Membranes were resuspended in 20 mM HEPES, 100 mM NaCl, 5 mM MgCl2, 1 mM DTT, and 1 mM EDTA. Fifty (50) […] of GTP-γ-[35S], compound, membrane suspension (20 microgram/well), and wheat germ agglutinin coated SPA beads (1 mg/well) were added to clear bottom 96 well assay plates. GDP ([…]) was added to the membrane solution prior to addition to the assay plates. Plates were sealed and incubated for four hours at room temperature then placed in a refrigerator overnight to allow the beads to settle. Signal stability at 4° C. was determined to be >60 hours. Plates were warmed to room temperature and counted in a Wallac Microbeta scintillation counter. For antagonist assays, specific agonists were added at the following concentrations: (MOR) DAMGO 1 micromolar, (DOR) DPDPE 30 nM, (KOR) U69593 300 nM. Kb's were determined by Cheng-Prusoff equation (see Cheng and Prusoff, Biochem. Pharmacol. 22, 3099, 1973).

[2] = target: T2, cloned human kappa opioid receptor (Homo sapiens, UniProt P41145); assay: GTP-γ-S binding assay, antagonist potency (Kb), kappa; format: biochemical; details: functional antagonist potency vs U69593 300 nM; Cheng-Prusoff
T2 construct: expressed in transfected cells
Procedure: as §1, §2

[3] = target: T3, cloned human delta opioid receptor (Homo sapiens, UniProt P41143); assay: GTP-γ-S binding assay, antagonist potency (Kb), delta; format: biochemical; details: functional antagonist potency vs DPDPE 30 nM; Cheng-Prusoff
T3 construct: expressed in transfected cells
Procedure: as §1, §2

T1 sequence (P35372 whole entry): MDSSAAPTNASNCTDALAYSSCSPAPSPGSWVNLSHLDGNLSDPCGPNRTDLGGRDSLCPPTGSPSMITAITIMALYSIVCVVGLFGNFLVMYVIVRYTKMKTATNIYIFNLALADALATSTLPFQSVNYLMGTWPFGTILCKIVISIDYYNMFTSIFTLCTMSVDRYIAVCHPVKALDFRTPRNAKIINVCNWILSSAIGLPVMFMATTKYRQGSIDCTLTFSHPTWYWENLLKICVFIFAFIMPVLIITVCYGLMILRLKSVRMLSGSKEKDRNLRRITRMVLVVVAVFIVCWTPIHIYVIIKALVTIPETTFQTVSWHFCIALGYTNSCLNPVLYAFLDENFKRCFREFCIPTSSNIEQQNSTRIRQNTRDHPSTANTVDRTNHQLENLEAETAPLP
mu opioid receptor, sequence (P35372 whole entry): as above
kappa opioid receptor, sequence (P41145 whole entry): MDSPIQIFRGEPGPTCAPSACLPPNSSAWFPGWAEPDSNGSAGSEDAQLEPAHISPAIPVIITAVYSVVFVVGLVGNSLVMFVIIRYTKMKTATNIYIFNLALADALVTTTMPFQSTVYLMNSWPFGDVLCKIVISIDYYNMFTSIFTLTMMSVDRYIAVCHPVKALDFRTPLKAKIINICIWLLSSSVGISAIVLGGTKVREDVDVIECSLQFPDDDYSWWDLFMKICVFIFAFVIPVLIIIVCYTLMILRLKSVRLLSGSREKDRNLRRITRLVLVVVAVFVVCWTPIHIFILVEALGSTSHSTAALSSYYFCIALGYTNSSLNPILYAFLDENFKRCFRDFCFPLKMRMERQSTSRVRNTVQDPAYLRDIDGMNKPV
T2 sequence (P41145 whole entry): as above
T3 sequence (P41143 whole entry): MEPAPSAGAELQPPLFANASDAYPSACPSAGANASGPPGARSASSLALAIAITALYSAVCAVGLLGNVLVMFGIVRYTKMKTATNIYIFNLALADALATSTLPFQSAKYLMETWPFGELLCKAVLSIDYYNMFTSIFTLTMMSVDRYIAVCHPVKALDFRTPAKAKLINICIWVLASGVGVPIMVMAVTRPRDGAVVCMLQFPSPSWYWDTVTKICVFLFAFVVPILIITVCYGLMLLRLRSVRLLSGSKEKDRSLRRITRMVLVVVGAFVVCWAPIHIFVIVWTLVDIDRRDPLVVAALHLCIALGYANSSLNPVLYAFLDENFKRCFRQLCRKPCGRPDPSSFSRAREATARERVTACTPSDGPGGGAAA
delta opioid receptor, sequence (P41143 whole entry): as above

Row | Structure (SMILES) | Ki (delta opioid receptor) [nM] | Ki (mu opioid receptor) [nM] | Ki (kappa opioid receptor) [nM] | Kb [1] [nM] | Kb [2] [nM] | Kb [3] [nM]
1 | NC(=O)c1ccc(Cn2ccc3cc(CNCCO)ccc32)cc1 [Example 10, 4-{5-[(2-Hydroxy-ethylamino)-methyl]-indol-1-ylmethyl}-benzamide] | > 5000 | 478 | 3190 |  |  | 
2 | NC(=O)c1ccc(Cn2ccc3cc(CNCCCc4ccccc4)ccc32)cc1 [Example 8, 4-{5-[(3-Phenyl-propylamino)-methyl]-indol-1-ylmethyl}-benzamide] | 633 | 59.3 | 304 |  |  | 
3 | CC(C)(C)CCNCc1ccc2c(ccn2Cc2ccc(C(N)=O)cc2)c1 [Example 3, 4-{5-[(3,3-Dimethyl-butylamino)-methyl]-indol-1-ylmethyl}-benzamide] | 98.2 | 15.6 | 106 | 4.4 | 50.5 | 19.2
4 | NC(=O)c1ccc(CN2CCc3cc(CNCCc4cccs4)ccc32)cc1 [Example 4, 4-{5-[(2-Thiophen-2-yl-ethylamino)-methyl]-2,3-dihydro-indol-1-ylmethyl}-benzamide] | 111 | 13.4 | 226 | 2.1 | > 42 | 19.2
5 | CC(C)CCNCc1ccc2c(c1)CCN2Cc1ccc(C(N)=O)cc1 [Example 5, 4-{5-[(3-Methyl-butylamino)-methyl]-2,3-dihydro-indol-1-ylmethyl}-benzamide] | 259 | 24.5 | 387 | 3.3 | > 42 | 24.3
6 | NC(=O)c1ccc(Cn2ccc3cc(CNCCc4cccs4)ccc32)cc1 [Example 2, 4-{5-[(2-Thiophen-2-yl-ethylamino)-methyl]-indol-1-ylmethyl}-benzamide] | 154 | 21.3 | 411 | 2 | 50.1 | 15
7 | CC(C)CCNCc1ccc2c(ccn2Cc2ccc(C(N)=O)cc2)c1 [Example 1, 4-{5-[(3-Methyl-butylamino)-methyl]-indol-1-ylmethyl}-benzamide] | 170 | 18.1 | 362 | 4.2 | 59.9 | 21.7
8 | CC(C)(C)CCNCc1ccc2c(c1)CCN2Cc1ccc(C(N)=O)cc1 [Example 6, 4-{5-[(3,3-Dimethyl-butylamino)-methyl]-2,3-dihydro-indol-1-ylmethyl}-benzamide] | 193 | 20.5 | 340 | 4 | 21.4 | 20.3
9 | CCCCCCNCc1ccc2c(ccn2Cc2ccc(C(N)=O)cc2)c1 [Example 7, 4-(5-Hexylaminomethyl-indol-1-ylmethyl)-benzamide] | 176 | 22.1 | 345 | 5.8 | > 35 | 27.4
10 | COc1ccc(CCNCc2ccc3c(ccn3Cc3ccc(C(N)=O)cc3)c2)cc1 [Example 11, 4-(5-{[2-(4-Methoxy-phenyl)-ethylamino]-methyl}-indol-1-ylmethyl)-benzamide] | 2550 | 319 | 1110 | 8.4 | > 42 | > 50
11 | NC(=O)c1ccc(Cn2ccc3cc(CNCCc4ccccc4F)ccc32)cc1 [Example 9, 4-(5-{[2-(2-Fluoro-phenyl)-ethylamino]-methyl}-indol-1-ylmethyl)-benzamide] | 144 | 20.8 | 332 | 6.2 | > 35 | 20.7

Reference: patent US8088800B2, “4-(5-aminomethyl)-indole-1-ylmethyl)-benzamide derivatives and related compounds as opioid receptor antagonists for the treatment of obesity” (Eli Lilly and Company, priority 2004, dated 2012)
